What all share (assay type): physicochemical
For data set [1], the system named is bispecific mAb A. The data set is described as follows: SEC percent monomer, formulation spiked with lipase-exposed surfactant (Example 3), mAb A. Conditions: mAb A (FIG. 3A). The procedure: (§1) Size Exclusion Chromatography (SEC). The soluble aggregation quality attribute of the investigated formulations was evaluated using size exclusion ultra performance liquid chromatography (SE-UPLC). To prepare samples for analysis, collected formulations from each condition (time zero (T0) control, shaking stress, and thermal stress followed by shaking stress) were diluted with formulation buffer of each respective mAb from 50 mg/mL to 2 mg/mL. SEC runs were conducted with a 5 μL injection of sample into an Acquity UPLC 200 Å, 1.7 μm column using a 0.2 M sodium phosphate mobile phase. Eluting peaks were integrated to determine monomer content based on percent area of the main peak relative to sum of all peak areas.
(§2) Further studies evaluated the ability of PFA and polysorbate formulations to retain their protective effects after exposures of the surfactants to lipase. The mAb formulations were spiked with surfactants that had been exposed to lipase-beads and then subjected to shaking stress or thermal stress followed by shaking. The mAb formulations were then evaluated for soluble aggregation and particulate matter using SEC and DLS, respectively.

Data set [2] deals with lipases immobilized on beads. Briefly: Surfactant stock solutions exposed to lipases immobilized on beads, surfactant quantitation by UPLC-ELSD (Example 2). Conditions: over the course of 18 days. From the text: Materials: Surfactants investigated in this study included PFA and polysorbates. Two PFA, Brij® 35 (L23) (Product #ET47399, CAS #9002-92-0) and Brij® 98 (020) (Product #ET40118, CAS #9004-98-2), were obtained from Croda International PLC (East Yorkshire, UK). Polysorbate 20 (Product #4116-04, CAS #9005-64-5) and polysorbate 80 (Product #4117-03, CAS #9005-65-6) were obtained from JT Baker (Center Valley, Pennsylvania). Lipase immobilized on polystyrene beads at 2.0 U/mg (Product Number 73940) was obtained from Fluka (Denmark). All monoclonal antibodies (mAbs) were produced or acquired by Janssen Supply Chain, LLC (Horsham, Pennsylvania) and purified in a series of chromatography and filtration steps.
Surfactant Quantitation. Surfactant quantitation of samples was performed using UPLC with evaporative light scattering detection. Duplicate 7.5 μL sample injections were injected into an OASIS MAX column (30 μm, 2.1×20 mm). The mobile phase consisted of a gradient of milliQ water and isopropanol with 2% formic acid. The integrated area for each sample's eluting peak was assessed against a surfactant standard curve created from serial dilution of each surfactant type ranging from 0.005% (w/v) to 0.08% (w/v).
Stock solutions of PFA and polysorbate surfactants were exposed to lipases immobilized on beads over a period of 18 days. Surfactant levels in the solutions were quantified periodically over the course of testing to determine the extent of lipase-mediated degradation.

The test system of data set [3] is IgG4 mAb C. Briefly: SEC percent monomer, formulation spiked with lipase-exposed surfactant (Example 3), mAb C. The settings on record: 0.01% surfactant exposed to lipase; mAb C (FIG. 3C). The procedure:
as §1, §2

Data set [4] has as its system mAbs A, B and C (50 mg/mL formulations). Briefly: SEC percent monomer of mAb formulations with surfactant after shaking or thermal stress (Example 1). The settings on record: 0.01% (w/v) surfactant; 3-month storage at 25° C. followed by shaking stress; compared with polysorbate (PS20 and PS80) formulations; Student's t-test p<0.01. The procedure:
as §1
To assess the protective effects of different surfactants in mAb formulations, polysorbate and PFA was spiked into formulations for three different mAbs. mAbs A and B are bispecific antibodies, and mAb C is an IgG4 monoclonal antibody. The formulations for mAbs A and B comprised 10 mM histidine, 8.5% (w/v) sucrose, at pH 5.7. The mAb C formulation consisted of 10 mM sodium phosphate, 8.5% (w/v) sucrose, 10 ppm EDTA, at pH 7.1. […] Each formulation condition was evaluated with vials in triplicate. The impact of the surfactant type and concentration was assessed using size exclusion chromatography (SEC).

As to polysorbate 80 [PS80], the “percent monomer content (SEC) versus control formulation without any surfactant” value in data set [1] (0.01% surfactant exposed to lipase) and in data set [1] (0.04% surfactant exposed to lipase) was “lower percent monomer content” each time. For the same substance, the “surfactant level in stock solutions exposed to lipases” value (from here on “surfactant level”) in data set [2] was “declined significantly”.

Regarding polysorbate 20 [PS20], in data set [2], the “surfactant level” value is “declined significantly”. The “percent monomer content (SEC) versus control formulation without any surfactant” value in data set [3] was “lower percent monomer content”.

Regarding “polyoxyethylene (20) oleyl ether [Brij® 020]”, the “percent monomer content (SEC)” value in data set [4] is given as “retain higher percent monomer content”. Moreover, in data set [2], the “surfactant level” value was “remained relatively constant”.

With “polyoxyethylene (23) lauryl ether [Brij® L23]”, the “percent monomer content (SEC)” value in data set [4] is listed as “retain higher percent monomer content”. In addition, the “surfactant level” value in data set [2] was “remained relatively constant”.

For the origin of these results see patent publication US12303483B2, “Lipase degradation resistant surfactants for use in large molecule therapeutic formulations” (Janssen Biotech, Inc., priority 2018, dated 2025).
